Key:
[1] = system: HepG2 cells; test: MTT antiproliferative assay, HepG2; type: cell-based, human; settings: 72 h MTT assay, Mean ± SD
Protocol: (§1) All cells were incubated at 37 °C by DMEM complete medium (containing 1% penicillin−streptomycin and 12% FBS) in 5% CO2 incubator. 2–5 × 10^3 cells were cultured in 96‐well plates and each well contained 100 µL complete medium. OXA was dissolved in water, and all other complexes were dissolved in DMF. After cells adhered in the wells, different concentrations of complexes were diluted in 100 µL complete medium and added in the wells. The final volume in the each well was 200 µL and the content of DMF was maximum 0.5%. After 72 h incubation, the antiproliferative activity was tested by MTT assay.

[2] = system: Hepa1-6 cells; test: MTT antiproliferative assay, Hepa1-6; type: cell-based; settings: Mus musculus, Hepa1-6; 72 h MTT assay, Mean ± SD
Protocol: as §1

[3] = system: 293T cells; test: MTT assay, normal kidney cell line 293T; type: cell-based; settings: Homo sapiens, HEK-293T; 72 h MTT assay, Mean ± SD
Protocol: as §1

[4] = system: MAPK pathway (phosphorylated MEK1/2 and ERK1/2); test: Western blot of MAPK pathway in HepG2; type: cell-based, human; settings: HepG2, 24 h
Protocol: (§2) HepG2 cells were incubated in 6 cm culture dishes and treated with different complexes. The treated cells were lysed with lysis buffer (RIPA:PMSF:phosphatase inhibitor:protease inhibitor = 100:1:1:1). The lysed cells were further broken by sonication, and proteins were isolated by centrifugation. The protein concentrations were detected by BCA assay. 10% SDS PAGE gel was usually applied to separate the different kDa of proteins, and more than 200 kDa of proteins were separated using 8% SDS PAGE gel. After seperation, proteins were transferred onto polyvinylidene difluoride (PVDF) membranes. The target proteins were labeled by various specific primary antibodies at 4 °C overnight. Then, the membranes were treated with anti‐rabbit or anti‐mouse secondary antibody for 2 h. Tris buffered saline with tween 20 (TBST) was applied to wash the membranes after each operation above. The target proteins’ bands were detected by the enhanced chemiluminescence (ECL) procedure.

[5] = system: PD-L1; test: PD-L1 expression in HepG2 (western blot, immunofluorescence, flow cytometry); type: cell-based, human; settings: HepG2, 24 h
Protocol: as §2
5 × 10^4 HepG2 cells were treated with complexes in 24‐well plates for 24 h. Subsequently, cells were fixed with 4% paraformaldehyde. Various specific antibodies were added for incubation at 4 °C overnight after cells were permeabilized with Triton X‐100 (except for membrane proteins) and blocked with BSA. Then, the cells were incubated with fluorescently‐labeled secondary antibodies in darkness for 2 h. After that, DAPI was added to stain nuclear in darkness. PBS was applied for washing after each operation above (Tris buffered saline (TBS) was applied for washing if phosphorylated protein was analyzed). The cell images were captured by the fluorescence microscopy.
4 × 10^5 HepG2 cells were incubated in 6‐well plates, and complexes were added in the wells. The cells were collected after incubation, and the treated cells were labeled with probes or fluorescently‐labeled antibodies. A flow cytometer was applied to analyze the labeled cells.

[6] = system: Hepa1-6 tumors; test: In vivo antitumor assay, Hepa1-6 tumors; set-up: species or system C57BL/6 mice; settings: after 13 days; 6d and OXA 5 mg kg^−1, GLA 10 mg kg^−1, i.p. every two days
[7] = system: MAPK pathway (phosphorylated MEK1/2 and ERK1/2); test: In vivo MAPK pathway in tumor tissue; set-up: species or system C57BL/6 mice; settings: western blot, day 13
[8] = system: PD-L1; test: In vivo PD-L1 expression in tumor tissue; set-up: species or system C57BL/6 mice; settings: western blot, 13 days of treatment
[9] = system: immune cells in Hepa1-6 tumor and spleen tissue; test: In vivo immune cell and marker analysis (flow cytometry, immunofluorescence, immunohistochemistry); set-up: species or system C57BL/6 mice; settings: for DC maturation in spleen and tumor tissues / macrophage polarization in tumor: flow cytometry and immunofluorescence; for T lymphocyte infiltration in tumor: flow cytometry and immunohistochemistry; for MDSC infiltration in tumor / Treg infiltration in tumor (Foxp3): vs model group, 13 days
[10] = Stability analysis by 1H NMR; type: physicochemical
Protocol: 5 mM of complex 6d was incubated with DMSO‐d6 or the mixed solution (DMSO‐d6 /D2O = 9:1) or the same mixed solution with 5 mM of GSH for different times (0 – 72 h), and the ^1H NMR spectra were acquired. The stability of AF was determined by the same method.

[11] = system: phosphorylated Akt; test: Western blot of phosphorylated Akt in HepG2; type: cell-based, human; settings: HepG2, 24 h; GLA at 8 µM
Protocol: as §2

[12] = system: HIF-1α; test: Western blot of HIF-1α in HepG2; type: cell-based, human; settings: HepG2, 24 h
Protocol: as §2

[13] = In vivo tolerability (body weight, survival, organ H&E)
Protocol: All mice were 6–8 weeks old males and procured from Hangzhou Medical College, located in Hangzhou, China. […] 2 × 10^6 Hepa1‐6 cells in 100 µL DMEM were subcutaneously seeded in underarms of C57BL/6 mice. […] Meanwhile, the mice weights and tumor volume were recorded, and the calculation formula of tumor volume was Volume = Width^2 × Length/2. After 13 days, all mice were sacrificed for collection of tumors, hearts, livers, spleens, lungs and kidneys. Collagenase IV (1 mg mL^−1) and DNase I (1 µg mL^−1) were applied to digest a part of the tumor tissue into cell suspension, and lysis buffer was used to remove red blood cells. The prepared cells above were stained with antibodies (anti‐CD3e‐FITC, and anti‐CD8a‐PE; anti‐CD11c‐APC, anti‐CD80‐PE, and anti‐CD86‐FITC; anti‐CD45‐Percp, anti‐CD11b‐APC, and anti‐Ly‐6G/Ly‐6C(Gr‐1)‐FITC; anti‐CD11b‐APC, anti‐CD206‐PE, and CD86‐FITC). CD3^+CD8^+ T cells, CD80^+CD86^+ DCs, CD11b^+Gr‐1^+ MDSCs, CD206^−CD86^+ M1‐type macrophages and CD206^+CD86^− M2‐type macrophages were analyzed by flow cytometry. Then, another part of tumor tissues were fixed with 4% paraformaldehyde, embedded in paraffin, cut into slices and stained with antibodies for immunofluorescence and immunohistochemistry analysis. H&E stain assays were applied for all tissue samples.

[14] = set-up: method as in PMID 30146723; settings: antitumor activity; cited from earlier work
[15] = Metabolic stability in whole blood; settings: mouse

| IC50 ([1]; Homo sapiens, HepG2) | Compound | IC50 [2] | IC50 [3] | IC50 [1] | PD-L1 expression (western blot) [5] | tumor growth vs model group [6] | MAPK pathway activation (phosphorylation of MEK1/2 and ERK1/2) in tumor tissue [7] | DC maturation in spleen and tumor tissues [9] | macrophage polarization in tumor [9] | T lymphocyte infiltration in tumor [9] | Arg-1 expression in tumor tissue ([9]; immunofluorescence) | CRT exposure in tumor tissue ([9]; immunofluorescence) | MDSC infiltration in tumor [9] | Treg infiltration in tumor (Foxp3) [9] | Akt phosphorylation (western blot) [11] | other results |
| --- | --- | --- | --- | --- | --- | --- | --- | --- | --- | --- | --- | --- | --- | --- | --- | --- |
| > 20 µM | CC1(C)C=Cc2c(ccc3c2OC[C@@H](c2ccc(OCCCCCBr)cc2OCCCCCBr)C3)O1 [3b] | > 20 µM | > 20 µM |  |  |  |  |  |  |  |  |  |  |  |  |  |
|  | O=C1[O][Pt]2([NH][C@@H]3CCCC[C@H]3[NH]2)[O]C1=O [OXA, oxaliplatin] |  |  | 4.08 ± 0.97 µM | did not affect | significant tumor growth inhibition | promoted the phosphorylation | induced DC maturation | promoted M2‐type polarization | promoted T lymphocyte infiltration | promoted the expression | promoted CRT exposure | higher level of MDSC infiltration | higher number of infiltrated Tregs |  | phosphorylation of MEK1/2 and ERK1/2 (western blot) [4]: no effect; PD-L1 expression in tumor tissue [8]: upregulated; GzmB expression in tumor tissue ([9]; immunofluorescence, OXA vs model group, 6d vs OXA group): did not increase obviously |
|  | CC(=O)OC[C@H]1O[C@@H]([S-])[C@H](OC(C)=O)[C@@H](OC(C)=O)[C@@H]1OC(C)=O.CCP(CC)CC.[Au+] [AF, auranofin, reference compound] |  |  | 3.54 ± 0.34 µM | upregulation |  |  |  |  |  |  |  |  |  | inhibited Akt phosphorylation | stability by 1H NMR [10]: remained stable; time after which 1H NMR spectra began to change / showed new peaks ([10]; 5 mM complex, DMSO-d6/D2O 9:1 containing GSH (5 mM)): 2 h; ERK1/2 phosphorylation (western blot, Figure S49) [4]: significantly enhancing ERK1/2 phosphorylation; HIF-1α expression (western blot) [12]: promoted |
| 39.5 ± 4.68 µM | CC1(C)C=Cc2c(ccc3c2OC[C@@H](c2ccc(O)cc2O)C3)O1 [GLA, glabridin] | 37.6 ± 1.73 µM | 43.4 ± 4.47 µM |  | did not exhibit this effect | did not show an obvious effect on tumor growth | significantly inhibited | induced DC maturation | significantly promoted M1‐type macrophage polarization | did not enhance T lymphocyte infiltration | downregulation | did not induce CRT exposure | reducing the infiltration | reducing the infiltration | did not significantly affect Akt phosphorylation | effect on mice body weight ([13]; 6d and OXA 5 mg kg^−1, GLA 10 mg kg^−1, i.p. every two days, OXA after nine days): no significant effect; organ tissue damage (H&E staining) ([13]; heart, liver, spleen, lung, kidney, day 13): did not cause noticeable damage to organ tissues; suggested minimum effective dose [14]: 10 mg/kg |
|  | CC(C)[N+](C)(CCOC(=O)C1c2ccccc2Oc2ccccc21)C(C)C [Propantheline bromide] |  |  |  |  |  |  |  |  |  |  |  |  |  |  | -k [15]: 0.0216; half-life [15]: 32.1 min; remaining at 0 h [15]: 100%; remaining at 5 min [15]: 88.5%; remaining at 0.25 h [15]: 66%; remaining at 0.5 h [15]: 47.5%; remaining at 1 h [15]: 21.8%; remaining at 2 h [15]: 7.63% |

Reference: paper PMC12591170, “Glabridin‐Gold(I) Complex as a Novel Immunomodulatory Agent Targeting TrxR and MAPK Pathways for Synergistic Enhancement of Antitumor Immunity” (Advanced Science, 2025)
